Earlier results as cited in patent publication US20080300217A1, “Combination Therapy with Fumaric Acid Esters for the Treatment of Autoimmune and/or Inflammatory Disorders” (ADITECH PHARMA AB, priority 2005, published 2008).

Conditions: pentoxifylline added to the standard Fumaderm treatment; psoriasis patients

For CC(=O)CCCCn1c(=O)c2c(ncn2C)n(C)c1=O [pentoxifylline], which “flush symptoms in patients” value is on record?
The value was “reduced the flush symptoms in patients”.
